Source: patent US20070099867A1, “Pharmaceutical agent containing hyaluronan as an active ingredient” (GLYCOSCIENCE LABORATORIES, INC., priority 2005, published 2007)

Experiments:
[1] = tested on: U937 cell (human monocyte line); experiment: Cytokine production by LPS-stimulated U937 cells, Human Cytokine Antibody array; assay type: cell-based; details: U937, LPS 100 ng/ml, HA4 100 ng/ml, 24 hours
Experimental: (§1) An U937 cell was disseminated in a 2 ml aliquot in a 6-well microplate at 5×10^5 cell/ml, supplemented with an LPS at a final concentration of 100 or 1000 ng/ml, and then incubated for 24 hours with 5% CO2 at 37° C. in the presence or absence of HA4 (100 ng/ml). The culture supernatant was centrifuged at 3000 rpm for 5 minutes to obtain a test substance. A 1 ml aliquot of the recovered supernatant was subjected to Human Cytokine Antibody array (Raybio) using an ELISA (ENDOGEN) to detect the production of various cytokines.
(§2) More specifically, the following procedure was employed to measure the production of the cytokines by the cytokine array and the ELISA.
A 2 ml aliquot of a blocking buffer was added to a membrane blotted with an antibody, which was then shaken for 30 minutes. The blocking buffer was removed, and a 1 ml aliquot of the culture supernatant was added and shaken at room temperature for 2 hours, washed 5 times, and then admixed with a primary antibody solution. After agitating at room temperature for 1.5 hours followed by washing 5 times, a secondary antibody solution was added and agitated overnight at 4° C. After washing 5 times, a chemiluminescence was allowed to develop and photographed by a Polaroid. The photograph was scanned to obtain its digital data which were subjected to an Image J to measure the luminescent intensity. The ratio based on the luminescent intensity of an internal standard placed in 6 positions in the membrane was calculated. In addition, a relative level (%) based on the expression level in a non-treatment group (NT) being 100 was calculated.

[2] = tested on: cerebrospinal tissue of multiple sclerosis model (EAE); experiment: DNA array analysis of cerebrospinal tissue of the EAE model; assay type: in vivo, Lewis rats; details: EAE rats
rat spinal injury model = experiment: Rat spinal injury model, immunostaining of spinal tissue with anti-Hsp72 and anti-synaptophysin antibody; assay type: in vivo, Wistar rat; details: Group 3: continuous intrathecal HA4 6 μg/day, 7 days; compared with Sham-operation (Group 1) and saline (Group 2)
Experimental: In this example, a rat spinal injury model was treated continuously with a physiological saline (saline group) or a physiological saline containing HA4 (HA4 group) followed by sampling the spinal tissue, which was then immunostained with an anti-Hsp72 antibody and/or an anti-synaptophysin antibody. Also in this example, a rat which had been subjected to a Sham-operation was handled as an intact control (Sham-operation group).
The rat spinal injury model was prepared by subjecting a Wistar rat (11-week old when receiving, 12-week old when using) to the procedure described below. First, a cervical to lumbar region of a test rat was clipped using an electric clipper under an anesthesia with pentobarbital and then the clipped region was cleaned with a 70% alcohol and ISOGIN. Then, the dorsal skin was excised to expose the 5th to 10th thoracic vertebrae and then the 6th thoracic vertebra was subjected to a semi-laminectomy. Then a dura was incised slightly and then under an anesthesia with xylocaine, the tip (fabricated to be 0.3 mm) of a microforceps was introduced over the width of the spinal posterior funiculus (about 1.5 mm) until the tip of the microforceps was brought into contact with the abdominal side vertebral body, and the microforceps were moved for 10 seconds to effect a debridement of the spinal cord (hereinafter referred to as a primary injury site). […]

K562 [3] = experiment: DNA chip gene expression analysis of cell viability genes (Example 3); assay type: cell-based, human; details: K562, 42° C. 20 minutes then 37° C. 30 minutes, HA4 10 ng/ml
Experimental: In this example, the cell viability enhancement of a pharmaceutical agent according to the invention was assessed using a DNA chip capable of monitoring a gene expression promotion/inhibition.
First, the K562 was incubated in Groups 1 and 2 in the […] described above. The both groups were incubated at 42° C. for 20 minutes followed by 37° C. for 30 minutes. The medium of Group 2 was supplemented with HA4 (10 ng/ml).
(§3) After the incubation, the medium was removed by centrifugation at 1000 rpm. The obtained cells were stored in a deep freezer at −60° C. From the cells thus stored, RNA was extracted according to a standard method. The extracted RNA was subjected to the DNA chip to analyze gene expressions. The DNA chip gene expression analysis was subtracted to DNA CHIP Research Inc. Specifically, the trade name: AceGene Human Oligo Chip 30K 1 Chip Version manufactured by DNA CHIP Research Inc. was employed.

[4] = tested on: K562 (human erythroleukemia cell); experiment: Cell viability by Rhodamine 123 staining after heat treatment; assay type: cell-based; details: K562, 20 minutes at 43° C. then 60 minutes at 37° C., HA4 100 ng/ml
Experimental: In this example, effect of the inventive pharmaceutical agent on cell viability was measured using Rhodamine 123. […] Accordingly, the degree of the staining with Rhodamine 123 serves as an index of the mitochondrial activity, thus the index of the cellular activity (see, non-patent reference 2).
In this example, a K562 (referred to as human erythroleukemia cell or human erythroblastoid leukemia cell) was used. The K562 was purchased from RIKEN, Japan.
In this example relating to preparation of test substance, HA4 was prepared at 100 ng/ml. Specifically, HA4 was prepared by the method of Tawada et al. (Tawada A, Masa T, Oonuki Y, Watanabe A, Matsuzaki Y, Asari A. Large-scale preparation, purification and characterization of hyaluronan oligosaccharides from 4-mers to 52-mers. Glycobiology, 2002; 12(7): 421-6) and the concentration was adjusted using a physiological saline.
First, the K562 was incubated under the condition described below. The culture medium for the K562 was an RPMI-1640 medium. In this example, the K562 was incubated in Groups 1 to 3 shown below. Each group was cultured under the condition described below. […]
The K562 after washing was inoculated at 1×10^4 cells/ml in a 96-well plate and a photograph was taken using a fluorescent microscope (Nikon). The image was sent to an Adobe Photoshop (Adobe Systems) where the fluorescent intensity of a cell was measured.

[5] = tested on: experimental autoimmune encephalomyelitis (EAE) multiple sclerosis model animals; experiment: Experimental autoimmune encephalomyelitis (EAE) multiple sclerosis model, EAE neural symptom evaluation; assay type: in vivo, Lewis rats; details: for EAE clinical score at the EAE climax: Day 13 after antigen inoculation, saline 2.2±0.41; for diseased period: saline 6.5±0.55 days
[6] = tested on: U937 cell (human monocyte line); experiment: IL-6 production by LPS-stimulated U937 cells, ELISA; assay type: cell-based; details: U937, LPS 100 ng/ml, HA4 100 ng/ml, 24 hours
Experimental: as §1, §2
To a microplate, 50 μl of a biotinylated antibody solution and 50 μl of the culture supernatant were added, and allowed to stand at room temperature for 2 hours. After washing with a washing buffer three times, 100 μl of a streptoavidin-HRP solution was added, allowed to stand at room temperature for 30 minutes, and washed with the washing buffer three times. A TMB was added, allowed to stand for at room temperature 30 minutes, and then a quencher was added to stop the reaction and the absorbance at 450 nm was measured (reference: 562 nm). The IL-6 concentration (pg/ml) was calculated based on the standard solutions measured in parallel.

K562 [7] = experiment: DNA chip expression analysis of cytokine-associated and chemokine-associated genes (Example 4); assay type: cell-based, human; details: K562, 42° C. 20 minutes then 37° C. 30 minutes, HA4 10 ng/ml
Experimental: In this example, the cytokine-associated gene and chemokine-associated gene expression inhibition of a pharmaceutical agent according to the invention was assessed using a DNA chip capable of monitoring a gene expression promotion/inhibition.
Experimental method: First, the K562 was incubated in Groups 1 and 2 in the RPMI medium described above. The both groups were incubated at 42° C. for 20 minutes followed by 37° C. for 30 minutes. The medium of Group 2 was supplemented with HA4 (10 ng/ml).
as §3, with “analyze the” for “analyze”, “expression.” for “expressions.”

[8] = intrathecal continuous 6 μg/day from antigen inoculation, Day 14, pooled cerebrospinal tissue
[9] = intraspinal single administration after onset of disease, 60 μg

SMILES: CC(=O)N[C@H]1[C@H](O[C@H]2[C@H](O)[C@@H](O)[C@H](O[C@H]3[C@H](O)[C@@H](CO)OC(O)[C@@H]3NC(C)=O)O[C@@H]2C(=O)O)O[C@H](CO)[C@@H](O)[C@@H]1O[C@@H]1O[C@H](C(=O)O)[C@@H](O)[C@H](O)[C@H]1O (some centres unmarked) [HA4, tetrasaccharide hyaluronan]
- production of IL-1α (cytokine array) [1]: reduction
- production of IL-1β (cytokine array) [1]: reduction
- production of IL-6 (cytokine array) [1]: reduction
- production of TGF-β (cytokine array) [1]: reduction
- production of TNF-α (cytokine array) [1]: reduction
- production of TNF-β (cytokine array) [1]: reduction
- IL-6 mRNA expression in cerebrospinal tissue ([2]; HA4 administered intrathecally after antigen inoculation, DNA array): increased
- Expression level ratio (HA/physiological saline), Decoy TRAIL receptor without death domain [2, 8]: 2.0
- Expression level ratio (HA/physiological saline), Fibroblast growth factor receptor substrate 2 [2, 8]: 2.3
- Expression level ratio (HA/physiological saline), Transthyretin [2, 8]: 0.38
- Hsp72 immunostaining at primary and secondary injury sites (rat spinal injury model): a further intense staining
- synaptophysin immunostaining at primary and secondary injury sites (rat spinal injury model): an expression close to that observed in Group 1
- HAA+/− ratio, Caspase 2 gene expression (K562 [3]; apoptosis-related): 0.27
- HAA+/− ratio, Granzyme H gene expression (K562 [3]; apoptosis-related): 0.38
- HAA+/− ratio, STK17b (DARK2) gene expression (K562 [3]; apoptosis-related): 0.09
- HAA+/− ratio, pawr (Par-4) gene expression (K562 [3]; apoptosis-related): 0.45
- HAA+/− ratio, dnaj (hsp40) homolog gene expression (K562 [3]; heat shock protein-related): 2.62
- HAA+/− ratio, DNAJ2 gene expression (K562 [3]; transcription control-related): 0.34
- HAA+/− ratio, TAF9L gene expression (K562 [3]; transcription control-related): 0.43
- Rhodamine 123 staining performance (fluorescent intensity, mitochondrial activity) [4]: inhibited such a reduction
- EAE clinical score at the EAE climax ([5]; intraspinal continuous administration after onset of disease, 6 μg/day, 11 days (therapeutic)): 1.5±1.0
- EAE clinical score at the EAE climax ([5]; intraspinal continuous administration immediately after inoculation, 6 μg/day, 22 days (prophylactic), mean ± SD): 0.2±0.41
- EAE clinical score at the EAE climax [5, 9]: 1.8±0.5
- diseased period ([5]; intraspinal continuous administration after onset of disease, 6 μg/day, 11 days): 4.3 ± 1.5 days
- cases developing the disease ([5]; intraspinal continuous administration immediately after inoculation, 6 μg/day, 22 days): ⅙
- diseased period [5, 9]: 5.0 ± 1.5 days
- production of IL-6 (ELISA) [6]: reduction
- HA4(+)/HA4(−) ratio, CCL28 gene expression (K562 [7]): 0.32
- HA4(+)/HA4(−) ratio, IFN-γ gene expression (K562 [7]): 0.11
- HA4(+)/HA4(−) ratio, IFN-ω1 gene expression (K562 [7]): 0.5
- HA4(+)/HA4(−) ratio, IL-1β gene expression (K562 [7]): 0.36
- HA4(+)/HA4(−) ratio, IL-5 gene expression (K562 [7]): 0.28
- HA4(+)/HA4(−) ratio, IL-17b gene expression (K562 [7]): 0.31
- HA4(+)/HA4(−) ratio, IL-18RAP gene expression (K562 [7]): 0.32
- HA4(+)/HA4(−) ratio, Mig(CXCL9) gene expression (K562 [7]): 0.11
